Data reported in patent publication US9980925B2, “Xanthohumol in antiarrythmic applications” (University of South Carolina, priority 2016, dated 2018).
“Also recorded” adds a separate entry of the source.

How the values were obtained:
Assay type in all cases: cell-based
rat ventricular myocytes [1] = assay: Global whole-cell Ca2+ transients in field-stimulated cells (Fluo-4 AM); conditions: for increase in Ca2+-transient peaks following a 30-second train of high-frequency stimulation: 0.5 to 2 Hz
Description: (§1) Whole-cell Ca^2+ transients occurring spontaneously or evoked electrically by field stimulation or voltage-clamp depolarizations or by rapid application of caffeine (2.5 mM for 0.5 or 1 second) were measured fluorometrically after incubating the cells in fluo-4 AM (2 μM) for 30 minutes. The dye was excited by 460 nm light from a LED-based illuminator (Prismatix, Modiin (lite, Israel), and Ca^2+-dependent fluorescent light (>500 nm) was detected with a photomultiplier tube that was placed behind a moveable, adjustable diaphragm, which served to limit the area of detection to the voltage-clamped cell. The cellular fluorescence signals (ΔF/F0) were normalized by dividing the changes in whole-cell fluorescence (ΔF) with the baseline fluorescence (F0).
Effects of xanthohumol on cardiac Ca^2+ signaling were evaluated in enzymatically dispersed ventricular myocytes that were subjected to field stimulation or voltage-clamp depolarizations in the whole-cell, perforated patch configuration to activate Ca^2+ current (ICa) and SR Ca^2+ release.
(§2) The cells were incubated with fluo-4 AM for 30 minutes to allow fluorometric imaging of Ca^2+ sparks and measurements of whole-cell Ca^2+ transients. Rapid perfusion of caffeine was used to release, and SR Ca^2+ stores and assesses their size according to known methodology. Xanthohumol was tested in the range from 5 nM to 1 μM and was used routinely either with acute application of 50 nM drug or by incubation of cells in 10 nM xanthohumol-containing solutions for 30 minutes. All cells were first perfused with Tyrode's solution (137 mM NaCl, 10 mM HEPES, 10 mM glucose, 5.4 mM KCl, 2 mM CaCl, 1 mM MgCl) and thereafter were subjected to the following in the absence or presence of xanthohumol:
(§3) Each experimental condition was typically sustained for 2-8 minutes to achieve equilibration. To avoid cell damage due to continuous light exposure, recordings were generally performed for intervals of only 5-10 seconds, but repeated every minute. Cells challenged with isoproterenol or low K^+ typically developed more abundant spontaneous Ca^2+ sparks and interdispersed irregular whole-cell Ca^2+ transients, especially in the absence of xanthohumol.

rat ventricular myocytes [2] = assay: SR Ca2+ content and refilling after caffeine-induced Ca2+ release
Description: as §1, §2
The aim of this set of experiments was to examine the effect of the xanthohumol on the SR Ca^2+ content and its recirculation. FIG. 14 compares the magnitude of Ca^2+ transients in electrically stimulated cells paced at 0.5 Hz to Ca^2+ transient that was produced when one stimulus was replaced by a rapid application of 2.5 mM caffeine for 1 second. […] It was concluded that xanthohumol suppresses slightly the Ca^2+ content of the SR, but this effect was fully reversed by isoproterenol.
To probe the effect of xanthohumol on recirculation of SR Ca^2+ and its refilling following depletion of its content by caffeine, the rate of recovery of electrically triggered Ca^2+ transients back to control levels was quantified as a measure of refilling of the SR store. […].

[3] = system: rat ventricular cardiomyocyte; assay: ROS production from DCF fluorescence in ventricular myocytes incubated with H2DCFDA
Description: A Noran Odyssey XL rapid two-dimensional laser-scanning confocal microscope (Noran Instruments, Madison, Wis.; Zeiss Axiovert TV135) was used with a x63 water-immersion objective, λex=488 nm and λem>515 nm to measure kinetics and subcellular distribution of fluorescence signals according to known protocols. Ca^2+ was imaged after 20- to 30-minute incubation with fluo-4 AM (2 μM). ROS was measured by incubating cells with H2DCFDA (5 μM for 30 minutes), which is cleaved by esterases to form less permeant 2′,7′-dichlorodihydrofluorescein that is then oxidized by free radical compounds to fluorescent 2′,7′-dichlorofluorescein (DCF) as described previously. Fluorescence images of ROS were recorded at low fluorescence intensity and frame rate (about 1 Hz) and required considerable signal averaging (FIG. 1).
Measurements of ROS were also carried out using the oxygen-radical sensitive dye 2′,7′-dichlorofluorescein (DCF) (5 μM). The effect of the xanthohumol was compared with the antioxidant N-acetyl cysteine (10 mM).
ROS production was evaluated from the rate of increase in DCF fluorescence in ventricular myocytes incubated with H2DCFDA.

rat ventricular myocytes [4] = assay: Ca2+ spark imaging (Fluo-4 epifluorescence)
Description: Ca^2+ sparks (Fluo-4, λex=488 nm) were also measured with the LEICA DMI6000 microscope in the epifluorescence mode but now operating at 60-100 frames/s (FIG. 3, FIG. 4 (panels A-C); FIG. 5, FIG. 6, and FIG. 7); the average baseline fluorescence intensity (F0) was calculated from several frames without indication of spontaneous Ca^2+ signals in the form of sparks or waves. Images were filtered by 2 pixel×2 pixel averaging. The amplitudes of the Ca^2+-dependent cellular fluorescence signals were quantified as ΔF/F0, where ΔF is the change in fluorescence measured within selected regions of interest. The time constant of decay of Ca^2+ transients (Tau) was estimated by approximation with a single exponential.
as §2, §3

[5] = target: T1, L-type Ca^2+ current (ICa) (Rattus norvegicus, UniProt P22002); assay: Voltage-clamp recording of L-type Ca2+ current (perforated patch)
T1 construct: enzymatically dispersed ventricular myocytes that were subjected to field stimulation or voltage-clamp depolarizations; endogenous in cells; host or cells: freshly isolated ventricular cardiomyocytes of male Sprague-Dawley rats
Description: (§4) Cells were voltage-clamped in the whole-cell perforated patch configuration at a holding potential of −50 or −60 mV and depolarized to +10 mV to activate L-type Ca^2+ current (ICa) and Ca^2+-induced Ca^2+ release using a Dagan amplifier and pClamp software (Clampex 10.2). Borosilicate patch pipettes were prepared using a horizontal pipette puller (Model P-87; Sutter Instruments, Novato, Calif.). […] Rapid applications of 2.5 mM caffeine and pharmacological interventions were used to elucidate the action mechanism of xanthohumol. Most experiments were performed at 35° C. Voltage-clamp experiments testing dose response were performed at both 25° C. and 35° C.
The effects of xanthohumol on Ca^2+ signaling parameters was compared using concentrations ranging between 1 nM and 1 μM. The experiments were carried out under perforated patch conditions both at room temperature and 35° C. Ventricular myocytes incubated in fluo-4 AM were activated by 100-ms depolarizing pulses from −50 to 10 m versus at room temperature. Ca^2+ current was suppressed by xanthohumol when the concentrations of the drug exceeded 100 nM (FIG. 16, panel A). […] At room temperatures, xanthohumol also slowed the kinetics of relaxation of Ca^2+ transients, as it suppressed its peak, at concentrations exceeding 50 nM (FIG. 16, panels B and C; P<0.001). […] It was concluded that higher metabolic states of myocytes, induced by higher temperatures and adrenergic stimulation, reduce the inhibitory effects of xanthohumol on Ca^2+ transients.

rat ventricular myocytes [6] = assay: Ca2+ transients in voltage-clamped cells (Fluo-4 AM)
Description: as §4, §1
The effects of xanthohumol on Ca^2+ signaling parameters was compared using concentrations ranging between 1 nM and 1 μM. The experiments were carried out under perforated patch conditions both at room temperature and 35° C. Ventricular myocytes incubated in fluo-4 AM were activated by 100-ms depolarizing pulses from −50 to 10 m versus at room temperature. Ca^2+ current was suppressed by xanthohumol when the concentrations of the drug exceeded 100 nM (FIG. 16, panel A). […] At room temperatures, xanthohumol also slowed the kinetics of relaxation of Ca^2+ transients, as it suppressed its peak, at concentrations exceeding 50 nM (FIG. 16, panels B and C; P<0.001). […]

[7] = isoproterenol 100 nM, 0.75 Hz, 35° C.
[8] = 50-100 nM, 35° C., field-stimulated
[9] = xanthohumol 50-300 nM co-applied with isoproterenol

T1 sequence (P22002 whole entry, other chains not shown): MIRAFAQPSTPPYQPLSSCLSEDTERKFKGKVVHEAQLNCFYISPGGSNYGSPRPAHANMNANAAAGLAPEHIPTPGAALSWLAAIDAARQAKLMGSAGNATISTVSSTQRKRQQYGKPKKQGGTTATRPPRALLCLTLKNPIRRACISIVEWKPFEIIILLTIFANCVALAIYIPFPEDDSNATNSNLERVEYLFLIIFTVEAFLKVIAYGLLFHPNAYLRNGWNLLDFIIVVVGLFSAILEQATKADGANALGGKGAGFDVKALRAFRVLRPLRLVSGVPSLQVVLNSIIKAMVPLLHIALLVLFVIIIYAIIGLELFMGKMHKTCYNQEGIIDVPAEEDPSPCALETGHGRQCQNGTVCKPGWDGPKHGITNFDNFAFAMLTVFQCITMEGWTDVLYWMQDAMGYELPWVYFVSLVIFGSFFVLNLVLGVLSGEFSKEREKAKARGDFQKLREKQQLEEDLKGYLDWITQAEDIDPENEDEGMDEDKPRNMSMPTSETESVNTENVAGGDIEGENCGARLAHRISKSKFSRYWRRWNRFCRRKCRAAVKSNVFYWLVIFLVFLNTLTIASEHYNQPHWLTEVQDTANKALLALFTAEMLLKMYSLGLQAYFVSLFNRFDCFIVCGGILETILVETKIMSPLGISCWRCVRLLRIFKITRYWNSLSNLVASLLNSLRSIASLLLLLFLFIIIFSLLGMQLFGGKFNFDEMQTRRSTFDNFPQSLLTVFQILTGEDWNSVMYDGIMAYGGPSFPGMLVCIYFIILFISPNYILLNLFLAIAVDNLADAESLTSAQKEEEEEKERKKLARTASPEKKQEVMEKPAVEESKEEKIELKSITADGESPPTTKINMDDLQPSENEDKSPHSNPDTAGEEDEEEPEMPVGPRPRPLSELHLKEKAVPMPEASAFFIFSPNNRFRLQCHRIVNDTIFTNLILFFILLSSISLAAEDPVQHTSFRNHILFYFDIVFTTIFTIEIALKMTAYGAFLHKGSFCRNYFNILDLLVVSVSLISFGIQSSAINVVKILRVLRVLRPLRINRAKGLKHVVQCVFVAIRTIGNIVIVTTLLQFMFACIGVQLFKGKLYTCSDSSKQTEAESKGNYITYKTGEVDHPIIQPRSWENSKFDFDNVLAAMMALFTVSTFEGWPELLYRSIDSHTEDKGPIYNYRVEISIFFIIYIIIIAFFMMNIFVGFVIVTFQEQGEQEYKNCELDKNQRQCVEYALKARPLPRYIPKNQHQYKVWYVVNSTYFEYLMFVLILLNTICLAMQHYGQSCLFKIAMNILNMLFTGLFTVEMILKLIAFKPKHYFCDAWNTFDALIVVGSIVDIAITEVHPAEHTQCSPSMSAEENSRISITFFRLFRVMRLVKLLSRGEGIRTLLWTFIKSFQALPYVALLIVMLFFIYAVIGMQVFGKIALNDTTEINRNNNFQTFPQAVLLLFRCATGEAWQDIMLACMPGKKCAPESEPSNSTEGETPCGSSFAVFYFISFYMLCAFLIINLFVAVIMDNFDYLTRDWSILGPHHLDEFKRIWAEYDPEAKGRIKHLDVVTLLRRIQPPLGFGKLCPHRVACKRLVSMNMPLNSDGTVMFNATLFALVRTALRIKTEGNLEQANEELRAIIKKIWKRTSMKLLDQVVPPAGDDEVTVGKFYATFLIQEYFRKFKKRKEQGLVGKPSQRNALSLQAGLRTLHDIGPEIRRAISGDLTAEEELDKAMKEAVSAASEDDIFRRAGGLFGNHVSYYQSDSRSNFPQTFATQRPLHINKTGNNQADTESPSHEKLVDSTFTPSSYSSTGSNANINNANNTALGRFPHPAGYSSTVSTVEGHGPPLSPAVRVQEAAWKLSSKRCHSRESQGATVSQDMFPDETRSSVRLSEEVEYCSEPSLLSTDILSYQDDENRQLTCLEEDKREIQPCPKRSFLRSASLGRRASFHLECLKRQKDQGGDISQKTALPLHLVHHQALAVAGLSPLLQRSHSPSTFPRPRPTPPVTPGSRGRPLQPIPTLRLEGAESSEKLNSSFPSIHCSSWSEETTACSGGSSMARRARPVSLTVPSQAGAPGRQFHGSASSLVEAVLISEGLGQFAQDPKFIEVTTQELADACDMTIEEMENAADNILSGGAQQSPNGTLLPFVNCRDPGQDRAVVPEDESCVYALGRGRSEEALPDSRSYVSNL
T1 sequence (P54290 25-944 partner limits assumed, other chains not shown): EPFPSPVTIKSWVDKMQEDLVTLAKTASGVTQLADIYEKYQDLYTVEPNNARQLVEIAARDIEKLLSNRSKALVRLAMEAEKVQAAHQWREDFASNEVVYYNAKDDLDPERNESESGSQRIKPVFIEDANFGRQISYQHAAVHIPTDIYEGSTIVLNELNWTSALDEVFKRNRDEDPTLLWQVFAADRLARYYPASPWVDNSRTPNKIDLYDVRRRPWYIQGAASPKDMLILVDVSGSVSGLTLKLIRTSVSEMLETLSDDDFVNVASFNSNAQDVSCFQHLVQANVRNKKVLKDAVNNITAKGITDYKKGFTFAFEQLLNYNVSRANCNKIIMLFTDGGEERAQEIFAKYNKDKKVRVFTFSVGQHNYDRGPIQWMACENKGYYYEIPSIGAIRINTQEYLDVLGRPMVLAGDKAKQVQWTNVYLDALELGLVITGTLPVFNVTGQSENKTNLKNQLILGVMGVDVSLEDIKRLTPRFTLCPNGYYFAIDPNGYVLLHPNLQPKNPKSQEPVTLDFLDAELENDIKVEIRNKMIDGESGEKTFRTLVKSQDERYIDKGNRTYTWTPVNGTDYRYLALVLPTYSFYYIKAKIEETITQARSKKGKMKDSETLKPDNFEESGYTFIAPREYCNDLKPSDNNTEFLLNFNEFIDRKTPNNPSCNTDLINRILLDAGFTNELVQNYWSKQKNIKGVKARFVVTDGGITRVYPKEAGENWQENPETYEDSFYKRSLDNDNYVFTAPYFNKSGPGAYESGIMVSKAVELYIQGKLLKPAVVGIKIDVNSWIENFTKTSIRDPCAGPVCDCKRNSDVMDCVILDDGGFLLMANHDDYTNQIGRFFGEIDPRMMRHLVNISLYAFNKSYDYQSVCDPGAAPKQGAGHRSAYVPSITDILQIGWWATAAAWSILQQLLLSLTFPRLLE
T1 sequence (P54290 945-1091 partner limits assumed, other chains not shown): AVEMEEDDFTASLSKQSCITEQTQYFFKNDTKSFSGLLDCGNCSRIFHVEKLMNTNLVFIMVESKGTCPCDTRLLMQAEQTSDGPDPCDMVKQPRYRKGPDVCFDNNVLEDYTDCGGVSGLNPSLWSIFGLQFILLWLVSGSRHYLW

CC(C)NCC(O)c1ccc(O)c(O)c1 (stereo not drawn) [isoproterenol, reference compound]
enhancement of rate of relaxation of Ca2+ transients (rat ventricular myocytes [1]; [7]): about 30% | increase in frequency of spontaneous events (rat ventricular myocytes [1]; [7]): 3- to 4 fold | increase in amplitude of the Ca2+ transients (rat ventricular myocytes [1]; isoproterenol 100 nM, electrical stimulation 0.75 Hz, 35° C., P=0.0464): 50% | fraction of the caffeine-releasable Ca2+ pool released by electrical stimulation (rat ventricular myocytes [2]; isoproterenol 100 nM, 0.5 Hz, 35° C.): enhanced | increase of peak of the triggered Ca2+ transient (rat ventricular myocytes [2]; isoproterenol 100 nM, paced at 0.5 Hz): 74.12%

COc1cc(O)c(CC=C(C)C)c(O)c1C(=O)/C=C/c1ccc(O)cc1 [xanthohumol]
effect on DCF signal after washout ([3]; after xanthohumol 50 nM): persisted even after washout | low K+ solution-induced increase of the DCF signal ([3]; xanthohumol 50 nM, low K+ 5.4→1.5 mM): effectively suppressed | slope of ROS-dependent DCF fluorescence signal (baseline ROS production) ([3]; xanthohumol 50 nM, uncompensated and background-compensated signal): reduced the slope | frequency of Ca2+ sparks evoked by withdrawal of extracellular K+ (rat ventricular myocytes [4]; 50 nM): markedly decreased | time to reduction of spark frequency after application (rat ventricular myocytes [4]; acute 10 nM): ≤ 2 min | spontaneous Ca2+ spark frequency (rat ventricular myocytes [4]; acute 10 nM, control cells with high baseline spark frequency, 5.4 mM K+): consistently reduced | spontaneously developed Ca2+ oscillations or sparks (rat ventricular myocytes [4]; incubated 30 minutes in 10 nM, 5.4 mM K+): scarce | frequency of sparks/Ca2+ oscillations on reduction of K+ versus non-incubated cells (rat ventricular myocytes [4]; incubated 30 minutes in 10 nM, K+-free solutions, p<0.005): significantly lower | time to suppression of aberrant cellular Ca2+ transients (rat ventricular myocytes [1]; 30 nM, electrically stimulated 1 Hz, 25° C.): < 10 s | peak ΔF/F0, F0, or decay time constant (Tau) of electrically triggered Ca2+ transients (rat ventricular myocytes [1]; 100 nM, 35° C.): without modifying | spontaneously triggered beats induced by rapid electrical stimulation (rat ventricular myocytes [1]; 100 nM, 35° C.): suppressed significantly | frequency of spontaneously triggered Ca2+ oscillations (rat ventricular myocytes [1]; 1.5 mM K+, xanthohumol 50 nM): markedly reduced | concentrations over which Tau was significantly reduced (rat ventricular myocytes [1]; 0.5 Hz, 35° C. (FIG. 12 C)): over 300 nM | toxic concentrations (rat ventricular myocytes [1]; 35° C., electrically stimulated cells): about 1 mM | increase in Ca2+-transient peaks following a 30-second train of high-frequency stimulation (rat ventricular myocytes [1]; 50-100 nM xanthohumol, n=4): 12.14%±2.662 | normalized ΔF or F0 (rat ventricular myocytes [1]; 50-100 nM, 35° C., 0.5 Hz, statistically insignificant): slight increase | aberrant secondary Ca2+ release events (rat ventricular myocytes [1]; [8]): blocks | amplitude of electrically stimulated cellular Ca2+ transients (rat ventricular myocytes [1]; [8]): without decreasing | time for effects of xanthohumol to start to develop (rat ventricular myocytes [1]; continuous recordings (FIG. 9)): less than 10 seconds | Tau of relaxation (rat ventricular myocytes [1]; range of 10-300 nM, 35° C.): without much change | isoproterenol-triggered spontaneous events (rat ventricular myocytes [1]; [9]): strong suppression | various parameters of Ca2+ transients (ΔF/F0, F0, Tau) (rat ventricular myocytes [1]; [9]): without having a significant effect | increase in Ca2+-transient peaks following a 30-second train of high-frequency stimulation (rat ventricular myocytes [1]; xanthohumol and isoproterenol (100 nM)): 5.002%±0.6667 | modulatory effect on the uptake kinetics (Tau) following Ca2+ release by caffeine (rat ventricular myocytes [2]; in presence of xanthohumol (50 nM)): completely suppressed | fractional Ca2+ release (ΔFStim/ΔFCaff) (rat ventricular myocytes [2]; xanthohumol 50 nM, 0.5 Hz, 35° C.): not influenced; also recorded: not significantly reduced | rate of refilling of the SR (rat ventricular myocytes [2]; xanthohumol 50 nM, after caffeine depletion): significantly reduced | ΔF/F signal of caffeine-induced Ca2+ release (total Ca2+ content of the SR) (rat ventricular myocytes [2]; xanthohumol 50 nM, caffeine 2.5 mM 1 second, 0.5 Hz, 35° C.): significantly reduced | reduction of peak of the triggered Ca2+ transient (rat ventricular myocytes [2]; xanthohumol 50 nM, paced at 0.5 Hz): 22.66% | diastolic Ca2+ levels (rat ventricular myocytes [2]; xanthohumol 50 nM, statistically insignificant): slight increase | effect on ICa ([5]; 10 nM, room temperature): little or no effect | Ca2+ current ([5]; 100-300 nM, 35° C.): significantly increased | concentration above which Ca2+ current was suppressed ([5]; room temperature): exceeded 100 nM | Ca2+ transients (rat ventricular myocytes [6]; 10 nM, room temperature): significantly suppressed | concentrations above which significant effects on ΔF/F or rate of decay occurred (rat ventricular myocytes [6]; 35° C.): exceeding 300 nM | concentrations above which relaxation of Ca2+ transients was slowed and peak suppressed (rat ventricular myocytes [6]; room temperature, P<0.001): exceeding 50 nM

CC(=O)N[C@@H](CS)C(=O)O [N-acetyl cysteine, reference compound]
low K+-induced increase of the DCF signal ([3]; N-acetyl cysteine 10 mM, low K+): suppressed | effect on DCF signal after washout ([3]; after N-acetyl cysteine 10 mM): washout rapidly reversed the DCF signal
